Reference: patent US20230159532A1, “PARATHYROID HORMONE (PTH) RECEPTOR ANTAGONISTS AND USES THEREOF” (Crinetics Pharmaceuticals, Inc., priority 2021, published 2023)

The compounds below were run against T1, human PTHR1 receptor (Homo sapiens, UniProt Q03431) (assay: Competitive antagonist binding assay for hPTH-R1 (radioactive competition binding, SPA beads)). Settings: human PTHR1 membranes, [125I]-[Nle8,18,Tyr34]-PTH(1-34) 0.2 nM, 90 minutes at room temperature; read-out: hPTHR1 Ki.
T1 construct: purchased Eurofins HTS030M
T1 sequence (Q03431 27-593): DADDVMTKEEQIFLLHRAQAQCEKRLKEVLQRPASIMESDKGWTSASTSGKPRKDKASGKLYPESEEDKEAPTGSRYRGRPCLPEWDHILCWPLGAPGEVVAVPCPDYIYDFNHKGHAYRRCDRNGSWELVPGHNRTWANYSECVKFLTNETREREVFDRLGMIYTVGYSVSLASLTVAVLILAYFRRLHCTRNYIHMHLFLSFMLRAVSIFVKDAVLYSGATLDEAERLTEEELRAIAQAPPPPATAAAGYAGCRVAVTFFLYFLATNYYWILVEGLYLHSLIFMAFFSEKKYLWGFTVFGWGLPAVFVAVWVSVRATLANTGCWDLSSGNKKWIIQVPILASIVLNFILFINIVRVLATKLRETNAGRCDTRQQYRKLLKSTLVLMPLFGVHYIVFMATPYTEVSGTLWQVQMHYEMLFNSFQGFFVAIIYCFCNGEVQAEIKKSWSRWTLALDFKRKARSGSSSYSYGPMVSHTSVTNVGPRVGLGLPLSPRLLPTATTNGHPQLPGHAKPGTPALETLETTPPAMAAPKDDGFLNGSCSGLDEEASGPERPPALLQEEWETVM
Method in brief: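 Human PTHR1 membranes on SPA beads incubated 90 min at room temperature with compound (typically 0-10,000 nM final) and 0.2 nM [125I]-[Nle8,18,Tyr34]-PTH(1-34) in HEPES buffer with MgCl2, CaCl2, BSA, Triton X-100 and protease inhibitors, pH 7.4. Scintillation signal read; Ki values derived.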

Row | Ki [nM] | SMILES
1 | < 100 | CC(C)N1C(=O)N(c2c(F)cc(NCCNCCCC(=O)O)cc2F)c2cc(C#N)cc(F)c2-c2cc(F)cnc21 [1-163, 4-{[2-({4-[13-cyano-4,15-difluoro-9-oxo-8-(propan-2-yl)-6,8,10-triazatricyclo[9.4.0.0^2,7]pentadeca-1(15),2(7),3,5,11,13-hexaen-10-yl]-3,5-difluorophenyl}amino)ethyl]amino}butanoic Acid]
2 | < 100 | CCN1C(=O)N(c2c(F)cc(NCCN3CCC(O)C3)cc2F)c2cc(C#N)ccc2-c2cc(Cl)cnc21 (centres unmarked) [1-164, 4-chloro-10-(2,6-difluoro-4-{[2-(3-hydroxypyrrolidin-1-yl)ethyl]amino}phenyl)-8-ethyl-9-oxo-6,8,10-triazatricyclo[9.4.0.0^2,7]pentadeca-1(11),2(7),3,5,12,14-hexaene-13-carbonitrile]
3 | < 100 | CCN1C(=O)N(c2c(F)cc(N[C@@H](C)CNC)cc2F)c2cc(C#N)ccc2-c2cc(Cl)cnc21 [1-165, 4-chloro-10-(2,6-difluoro-4-{[(2S)-1-(methylamino)propan-2-yl]amino}phenyl)-8-ethyl-9-oxo-6,8,10-triazatricyclo[9.4.0.0^2,7]pentadeca-1(11),2(7),3,5,12,14-hexaene-13-carbonitrile]
4 | < 100 | CCN1C(=O)N(c2c(F)cc(NCCNCCNC(=O)NC)cc2F)c2cc(C#N)ccc2-c2cc(Cl)cnc21 [1-166, 1-[2-({2-[(4-{4-chloro-13-cyano-8-ethyl-9-oxo-6,8,10-triazatricyclo[9.4.0.0^2,7]pentadeca-1(11),2(7),3,5,12,14-hexaen-10-yl}-3,5-difluorophenyl)amino]ethyl}amino)ethyl]-3-methylurea]
5 | < 100 | CCN1C(=O)N(c2c(F)cc(NCCNCCNC(=O)OC)cc2F)c2cc(C#N)ccc2-c2cc(Cl)cnc21 [1-167, Methyl N-[2-({2-[(4-{4-chloro-13-cyano-8-ethyl-9-oxo-6,8,10-triazatricyclo[9.4.0.0^2,7]pentadeca-1(11),2(7),3,5,12,14-hexaen-10-yl}-3,5-difluorophenyl)amino]ethyl}amino)ethyl]carbamate]
6 | < 100 | CCN1C(=O)N(c2c(F)cc(NCCNCCNC(C)=O)cc2F)c2cc(C#N)ccc2-c2cc(Cl)cnc21 [1-168, N-[2-({2-[(4-{4-chloro-13-cyano-8-ethyl-9-oxo-6,8,10-triazatricyclo[9.4.0.0^2,7]pentadeca-1(15),2(7),3,5,11,13-hexaen-10-yl}-3,5-difluorophenyl)amino]ethyl}amino)ethyl]acetamide]
7 | < 100 | CCN1C(=O)N(c2c(F)cc(NCCNC[C@H]3CCC(=O)N3)cc2F)c2cc(C#N)ccc2-c2cc(Cl)cnc21 [1-170, 4-chloro-10-(2,6-difluoro-4-{[2-({[(2R)-5-oxopyrrolidin-2-yl]methyl}amino)ethyl]amino}phenyl)-8-ethyl-9-oxo-6,8,10-triazatricyclo[9.4.0.0^2,7]pentadeca-1(11),2(7),3,5,12,14-hexaene-13-carbonitrile]
8 | < 100 | CCN1C(=O)N(c2c(F)cc(NCCNC[C@H](O)CO)cc2F)c2cc(C#N)ccc2-c2cc(Cl)cnc21 [1-171, 4-chloro-10-{4-[(2-{[(2S)-2,3-dihydroxypropyl]amino}ethyl)amino]-2,6-difluorophenyl}-8-ethyl-9-oxo-6,8,10-triazatricyclo[9.4.0.0^2,7]pentadeca-1(11),2(7),3,5,12,14-hexaene-13-carbonitrile]
9 | < 100 | CCN1C(=O)N(c2c(F)cc(NCCNCCNC(=O)NC)cc2F)c2cc(C#N)ccc2-c2cc(F)cnc21 [1-172, 1-[2-({2-[(4-{13-cyano-8-ethyl-4-fluoro-9-oxo-6,8,10-triazatricyclo[9.4.0.0^2,7]pentadeca-1(11),2(7),3,5,12,14-hexaen-10-yl}-3,5-difluorophenyl)amino]ethyl}amino)ethyl]-3-methylurea]
10 | < 100 | CCN1C(=O)N(c2c(F)cc(NCCN[C@H](C)CO)cc2F)c2cc(C#N)ccc2-c2cc(Cl)cnc21 [1-173, 4-chloro-10-{2,6-difluoro-4-[(2-{[(2R)-1-hydroxypropan-2-yl]amino}ethyl)amino]phenyl}-8-ethyl-9-oxo-6,8,10-triazatricyclo[9.4.0.0^2,7]pentadeca-1(11),2(7),3,5,12,14-hexaene-13-carbonitrile]
11 | < 100 | CCN1C(=O)N(c2c(F)cc(NCCNC[C@@H]3CCC(=O)N3)cc2F)c2cc(C#N)ccc2-c2cc(Cl)cnc21 [1-174, 4-chloro-10-(2,6-difluoro-4-{[2-({[(2S)-5-oxopyrrolidin-2-yl]methyl}amino)ethyl]amino}phenyl)-8-ethyl-9-oxo-6,8,10-triazatricyclo[9.4.0.0^2,7]pentadeca-1(11),2(7),3,5,12,14-hexaene-13-carbonitrile]
12 | < 100 | CCN1C(=O)N(c2c(F)cc(NCCNCCCS(=O)(=O)O)cc2F)c2cc(C#N)ccc2-c2cc(Cl)cnc21 [1-175, 3-({2-[(4-{4-chloro-13-cyano-8-ethyl-9-oxo-6,8,10-triazatricyclo[9.4.0.0^2,7]pentadeca-1(11),2(7),3,5,12,14-hexaen-10-yl}-3,5-difluorophenyl)amino]ethyl}amino)propane-1-sulfonic acid]
13 | < 100 | CCN1C(=O)N(c2c(F)cc(NCCNCC3CCC(=O)N3)cc2F)c2cc(C#N)ccc2-c2cc(Cl)cnc21 (centres unmarked) [1-176, 4-chloro-10-{2,6-difluoro-4-[(2-{[(5-oxopyrrolidin-2-yl)methyl]amino}ethyl)amino]phenyl}-8-ethyl-9-oxo-6,8,10-triazatricyclo[9.4.0.0^2,7]pentadeca-1(15),2(7),3,5,11,13-hexaene-13-carbonitrile]
14 | < 100 | CCN1C(=O)N(c2c(F)cc(NCCN[C@@H]3CC[C@@H]3O)cc2F)c2cc(C#N)ccc2-c2cc(Cl)cnc21 [1-177, 4-chloro-10-{2,6-difluoro-4-[(2-{[(1R,2S)-2-hydroxycyclobutyl]amino}ethyl)amino]phenyl}-8-ethyl-9-oxo-6,8,10-triazatricyclo[9.4.0.0^2,7]pentadeca-1(11),2(7),3,5,12,14-hexaene-13-carbonitrile]
15 | < 100 | CCN1C(=O)N(c2c(F)cc(NCCNCCC(=O)O)cc2F)c2cc(C#N)ccc2-c2cc(Cl)cnc21 [1-178, 3-({2-[(4-{4-chloro-13-cyano-8-ethyl-9-oxo-6,8,10-triazatricyclo[9.4.0.0^2,7]pentadeca-1(11),2(7),3,5,12,14-hexaen-10-yl}-3,5-difluorophenyl)amino]ethyl}amino)propanoic acid]
16 | < 100 | CCN1C(=O)N(c2c(F)cc(NCCN[C@@H]3CC[C@H]3O)cc2F)c2cc(C#N)ccc2-c2cc(Cl)cnc21 [1-179, 4-chloro-10-{2,6-difluoro-4-[(2-{[(1R,2R)-2-hydroxycyclobutyl]amino}ethyl)amino]phenyl}-8-ethyl-9-oxo-6,8,10-triazatricyclo[9.4.0.0^2,7]pentadeca-1(11),2(7),3,5,12,14-hexaene-13-carbonitrile]
17 | < 100 | CCN1C(=O)N(c2c(F)cc(NCCNC[C@H](C)O)cc2F)c2cc(C#N)ccc2-c2cc(Cl)cnc21 [1-180, 4-chloro-10-{2,6-difluoro-4-[(2-{[(2S)-2-hydroxypropyl]amino}ethyl)amino]phenyl}-8-ethyl-9-oxo-6,8,10-triazatricyclo[9.4.0.0^2,7]pentadeca-1(11),2(7),3,5,12,14-hexaene-13-carbonitrile]
